Test results taken from the PolyMetriX glass transition set.
± gives the standard deviation of the reports.

Row | SMILES | glass transition temperature [°C]
1 | *Oc1ccc(C2(c3ccc(Oc4ccc(C(=O)c5c(C(=O)c6ccc(*)cc6)c(-c6ccc(F)cc6)c(-c6ccc(F)cc6)c(-c6ccc(F)cc6)c5-c5ccc(F)cc5)cc4)cc3)c3ccccc3-c3ccccc32)cc1 (repeat unit) | 293.00
2 | *c1ccc(CCc2ccc(N3C(=O)C(=O)N(*)C3=O)cc2)cc1 (repeat unit) | 196.00
3 | *O[Si](C)(C)CCCNC(=O)C(=O)NCCC[Si](*)(C)C (repeat unit) | -46.48
4 | *C(=O)Nc1ccc(Cc2ccc(NC(=O)c3ccc4c(c3)C(=O)N(c3ccc(S(=O)(=O)c5ccc(N6C(=O)c7ccc(*)cc7C6=O)cc5)cc3)C4=O)cc2)cc1 (repeat unit) | 324.00
5 | */C=C/c1ccc(*)c(-c2cc(OCCC(C)C)c(OCCC(C)C)cc2-c2ccccc2)c1 (repeat unit) | 164.00
6 | *CC1CCC(CNC(=O)CCCCCCCCC(=O)N*)CC1 (repeat unit) | 89.00
7 | *CCCCCCCCCCOC(=O)CCCCCCCCCCCCCCCCC(=O)O* (repeat unit) | -17.00
8 | *CC(*)(C)C(=O)Oc1ccc(C(=O)O)cc1 (repeat unit) | 110.00
9 | *Oc1ccc(S(=O)(=O)c2ccc(Oc3ccc(C(C)(C)c4ccc(*)c(Cl)c4)cc3Cl)cc2)cc1 (repeat unit) | 205.00
10 | *Oc1ccc(CC(NC(=O)CCc2ccc(OC(=O)CCCCCCCCC(*)=O)cc2)C(=O)OCCCC)cc1 (repeat unit) | 30.00
11 | *CCCOCCCCOCCCN1C(=O)c2ccc(C(=O)Oc3ccc(-c4ccc(OC(=O)c5ccc6c(c5)C(=O)N(*)C6=O)cc4)cc3)cc2C1=O (repeat unit) | 70.00
12 | *CC(COCCCCCC)O* (repeat unit) | -85.50
13 | *O[Si](C)(C)O[Si](C)(C)OC(C)CCCCC(*)C (repeat unit) | -87.00
14 | *c1ccc(OC(=O)c2ccc(C(=O)Oc3ccc(C4(*)NC(=O)c5ccccc54)cc3)cc2)cc1 (repeat unit) | 327.00
15 | *c1[nH]c2ccccc2c1* (repeat unit) | 137.00
16 | *CCCCCCNC(=O)/C=C(\C)C(=O)N* (repeat unit) | 94.00
17 | *O[Si](*)(C)CCCCCCCCCCC(=O)OCCC(F)(F)C(F)(F)C(F)(F)C(F)(F)C(F)(F)C(F)(F)F (repeat unit) | -69.00
18 | *c1ccc2c(c1)C(=O)N(c1cccc(Oc3ccc(Oc4cccc(N5C(=O)c6ccc(C(*)(C(F)(F)F)C(F)(F)F)cc6C5=O)c4)cc3)c1)C2=O (repeat unit) | 230.00
19 | *c1ccc2c(c1)C(CCCCCC)(CCCCCC)c1cc(-c3cc(CCCCCCCC)c(*)cc3CCCCCCCC)ccc1-2 (repeat unit) | 74.50
20 | *CC(*)c1ccc(CCCCCCCCC)cc1 (repeat unit) | -53.00
21 | *Oc1ccc(NC(=O)c2ccc(S(=O)(=O)c3ccc(C(=O)Nc4ccc(Oc5ccc(C6(c7ccc(*)cc7)C7CC8CC(C7)CC6C8)cc5)cc4)cc3)cc2)cc1 (repeat unit) | 252.00
22 | *CC(=O)NCCCCCCNC(=O)COC(=O)CCCCC(=O)O* (repeat unit) | 19.00

Row | SMILES | glass transition temperature [°C]
23 | *CC(*)(C)C(=O)OCc1ccc(Cl)cc1 (repeat unit) | 43.60
24 | *CC(*)(C)C(=O)OCC1COC(CP(=O)(OCC)OCC)O1 (repeat unit) | 115.00
25 | *CC(*)c1ccc(COCCCCCC)cc1 (repeat unit) | -20.00
26 | *Oc1ccc(C(C)(C)c2ccc(OC(*)=S)cc2)cc1 (repeat unit) | 140.50
27 | *CC(*)c1cc(C)ccc1C (repeat unit) [Poly(2,5-dimethyl styrene) ] | 143 ± 0.6
28 | *CCOC(=O)/C=C/C(=O)NCCCCCCNC(=O)/C=C/C(=O)O* (repeat unit) | 89.00
29 | *CCCCC(=O)Oc1ccc(-c2ccc(OC(=O)c3ccc4c(c3)C(=O)N(*)C4=O)cc2)cc1 (repeat unit) | 123.00
30 | *OC(COC(=O)c1ccc(C(*)=O)c(OC)c1)COc1ccc(/N=N/c2ccc(C#N)cc2)cc1 (repeat unit) | 120.00
31 | *Oc1ccc(OC(=O)c2ccc(C(*)=O)cc2Oc2ccc(F)cc2)cc1 (repeat unit) | 106.00
32 | *CC(*)c1ccc(COCCOCCCC)cc1 (repeat unit) | -38.00
33 | *Oc1ccc(Oc2ccc(Oc3cccc(C(=O)Oc4ccc(OC(=O)c5cccc(*)c5)cc4)c3)cc2)cc1 (repeat unit) | 101.00
34 | *c1cccc(-n2nc(-c3ccccc3)c3cc(Oc4ccc(C(C)(C)c5ccc(Oc6ccc7c(-c8ccccc8)nn(*)c(=O)c7c6)cc5)cc4)ccc3c2=O)c1C#N (repeat unit) | 200.00
35 | *CCCC1(CCCNC(=O)c2ccccc2-c2ccccc2C(=O)N*)c2ccccc2-c2ccccc21 (repeat unit) | 165.00
36 | *Nc1ccc(C(c2ccc(NC(=O)c3ccc4cc(C(*)=O)ccc4c3)cc2)(P2(=O)Oc3ccccc3-c3ccccc32)P2(=O)Oc3ccccc3-c3ccccc32)cc1 (repeat unit) | 241.00
37 | *C(F)(F)C1(F)C(F)(F)C(*)(F)C(F)(F)C(F)(F)C(F)(F)C1(F)F (repeat unit) | 198.00
38 | *CNC(=O)OCC(OC(=O)NCc1ccc(*)o1)c1ccco1 (repeat unit) | 30.00
39 | *CC(O)COc1ccc(C(C)(C)c2ccc(OCC(O)COc3cccc(NC(=O)CCCCCCC(=O)Nc4cccc(O*)c4)c3)cc2)cc1 (repeat unit) | 92.00
40 | *C(=O)Nc1ccc(Oc2ccc(C3(c4ccc(Oc5ccc(NC(=O)c6ccc7c(c6)C(=O)N(c6ccc(Oc8ccc(Oc9ccc(N%10C(=O)c%11ccc(*)cc%11C%10=O)cc9)c(C)c8)cc6)C7=O)cc5)cc4)NC(=O)c4ccccc43)cc2)cc1 (repeat unit) | 293.00
41 | *c1ccc(Oc2ccc(-c3ccc(Oc4ccc(N5C(=O)c6ccc(Oc7c(C)cc(C(C)(C)c8cc(C)c(Oc9ccc%10c(c9)C(=O)N(*)C%10=O)c(C)c8)cc7C)cc6C5=O)cc4)cc3C)c(C)c2)cc1 (repeat unit) | 257.00
42 | *CCCCCCNC(=O)CCCCC(=O)NCC(=O)N* (repeat unit) | 53.40
43 | *C(=O)c1ccc2c(c1)/C(=N\c1ccc(Oc3cccc(/N=C4/OC(=O)c5ccc(*)cc54)c3)cc1)OC2=O (repeat unit) | 253.00
44 | *Oc1ccc(NC(=O)CCCCCCCCCCC(=O)Nc2ccc(*)cc2)cc1 (repeat unit) | 150.00

Row | SMILES | glass transition temperature [°C]
45 | *CC(*)c1cc(Br)ccc1OC (repeat unit) | 86.00
46 | *Nc1ccc(NC(=O)Cc2cc(C)c(CC(*)=O)cc2C)cc1 (repeat unit) | 175.00
47 | *c1ccc(C(c2ccccc2)c2ccc(N(c3ccc(C)cc3)c3ccc(-c4ccc(N(*)c5ccc(C)cc5)cc4)cc3)cc2)cc1 (repeat unit) | 239.00
48 | *ON(C(F)(F)F)C(F)(F)/C(F)=C(\F)C(*)(F)F (repeat unit) | -7.00
49 | *c1ccc(Oc2ccc(Oc3ccc(N4C(=O)c5ccc(-c6ccc7c(c6)C(=O)N(*)C7=O)cc5C4=O)cc3)c(C(C)(C)C)c2)cc1 (repeat unit) | 274.00
50 | *CCCP(=O)(CCCNC(=O)CCCCC(=O)N*)c1ccccc1 (repeat unit) | 55.00
51 | *CC(*)n1cc2ccccc2n1 (repeat unit) | 41.50
52 | *CC(*)C1CCCC(C)C1 (repeat unit) | 141.00
53 | *Oc1ccc(-c2ccc(/N=N/c3ccc(C(*)=O)cc3)cc2)cc1 (repeat unit) | 147.00
54 | *CCSCc1ccc(Cc2ccc(CSCCOC(=O)CSCc3ccc(Cc4ccc(CSCC(=O)O*)cc4)cc3)cc2)cc1 (repeat unit) | 14.00
55 | *c1cccc(Oc2ccc(C#N)c(Oc3cccc(N4C(=O)c5ccc(Oc6ccc7c(c6)C(=O)N(*)C7=O)cc5C4=O)c3)c2)c1 (repeat unit) | 196.00
56 | *OC(=O)c1ccc(CCCCCCc2ccc(C(*)=O)cc2)cc1 (repeat unit) | 20.00
57 | *c1ccc(C)c(N2C(=O)c3ccc(-c4ccc5c(c4)C(=O)N(*)C5=O)cc3C2=O)c1 (repeat unit) | 395.00
58 | *C(=O)Nc1ccc(Oc2ccccc2-c2ccccc2Oc2ccc(NC(=O)c3ccc4c(c3)C(=O)N(c3ccc(Oc5ccc(S(=O)(=O)c6ccc(Oc7ccc(N8C(=O)c9ccc(*)cc9C8=O)cc7)cc6)cc5)cc3)C4=O)cc2)cc1 (repeat unit) | 236.00
59 | *Cc1ccc(CNC(=O)CCCCCCCCCCCC(=O)N*)cc1 (repeat unit) | 100.00
60 | *Nc1cc(NC(=O)Nc2ccc(Cc3ccc(NC(*)=O)cc3)cc2)cc(C(=O)Nc2ccc3c(c2)C(=O)c2ccccc2C3=O)c1 (repeat unit) | 168.00
61 | *CCCCCCCCCCCCOc1ccc(N(c2ccccc2)c2ccc(-c3ccc(N(c4ccccc4)c4ccc(O*)cc4)cc3)cc2)cc1 (repeat unit) | 42.50
62 | *CC(O)CN(CC(O)COc1ccc(C(C)(C)c2ccc(O*)cc2)cc1)c1ccc(/N=N/c2ccc([N+](=O)[O-])cc2)cc1 (repeat unit) | 59.00
63 | *CC(*)c1ccc(B(Oc2ccc(-c3c(F)c(F)c(F)c(F)c3F)c3cccnc23)c2ccc(C(C)(C)C)cc2)cc1 (repeat unit) | 245.00
64 | *Nc1ccc(C(=O)c2ccc(Nc3ccc4c(c3)c3cc(*)ccc3n4CC(CC)CCCC)cc2)cc1 (repeat unit) | 236.1
65 | *Oc1ccc(C2(c3ccc(OC4(F)C(*)(F)C(F)(F)C4(F)F)cc3)c3ccccc3-c3ccccc32)cc1 (repeat unit) | 228.00
66 | *c1ccc(C(=O)Nc2ccc(Oc3ccc(Oc4ccc(NC(=O)c5ccc(Oc6ccc(-c7nn(*)c(=O)c8ccccc78)c7ccccc67)cc5)cc4C(F)(F)F)cc3)c(C(F)(F)F)c2)cc1 (repeat unit) | 281.50
